{
  "source": "patent US9907803B2",
  "about": "“Methods for treating attention deficit hyperactivity disorder” (REVIVA PHARMACEUTICALS, INC., priority 2014, dated 2018)",
  "target": "5-HT2A (Homo sapiens, UniProt P28223)",
  "sequence (P28223 whole entry)": "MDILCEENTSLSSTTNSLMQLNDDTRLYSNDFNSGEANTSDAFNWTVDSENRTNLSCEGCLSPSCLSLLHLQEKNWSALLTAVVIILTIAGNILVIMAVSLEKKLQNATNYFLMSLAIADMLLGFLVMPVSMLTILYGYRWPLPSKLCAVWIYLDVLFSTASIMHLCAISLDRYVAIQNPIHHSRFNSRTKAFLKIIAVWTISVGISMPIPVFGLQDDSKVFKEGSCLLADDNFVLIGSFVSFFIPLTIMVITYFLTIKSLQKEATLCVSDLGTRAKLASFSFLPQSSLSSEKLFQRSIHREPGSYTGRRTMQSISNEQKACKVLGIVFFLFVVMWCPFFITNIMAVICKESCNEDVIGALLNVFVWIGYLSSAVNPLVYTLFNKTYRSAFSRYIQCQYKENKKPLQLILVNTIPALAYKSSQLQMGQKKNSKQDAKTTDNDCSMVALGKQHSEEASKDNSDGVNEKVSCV",
  "experiment": "Radioligand binding assay, serotonin 5-HT2A",
  "details": "5-HT2A radioligand binding",
  "method": "Two arylpiperazine derivatives of Formula (I) were tested in the in vitro pharmacological assays to evaluate their activities for dopamine D2 and D4, and serotonin 5-HT1A, 5-HT2A, 5-HT2B, 5-HT6 and 5-HT7 receptors.\nMethods employed to evaluate the test compounds A and B in radioligand binding assays were adopted from the scientific literature references as shown in Table 1 to maximize reliability and reproducibility. Reference standards were run as an integral part of each assay to ensure the validity of the results obtained.\nLiterature References in Table 1: • 1. Gundlach, A. L., et al., Life Sciences 1984, 35:1981-1986. • 2. Hoyer, D., et al, Eur J Pharmacol, 1985, 118:13-23 • 3. Hall, D. a., et al, Brit J Pharmacol, 1997, 121:731-736. • 4. Carpenter, J. W., et al, (2002) Configuring radioligand receptor binding assays for HTS using scintillation proximity assay technology. Methods in Molecular Biology 190 High Throughput Screening: Methods and Protocols • [www.ncgc.nihgov/guidance/manualtoc.html] • 5. Van Tol, et al, nature 1992, 358:149-152. • 6. Bonhaus, D. W., et al, Brit J Pharmacol, 1995, 115:622-628. • 7. Monsma, F. J., et al, Mol Pharmacol, 1993, 43:320-327. • 8. Shen, Y. et al, J. Biol Chem, 1993, 268:18200-18204. • 9. Adham, N., et al, J Pharmacol Exp Ther, 1998, 287:508-514.",
  "note": "Counter-ions that a name gives are not always drawn.",
  "data": [
    {"smiles": "O=C1COc2ccc(OCCCCN3CCN(c4cccc(Cl)c4Cl)CC3)cc2N1", "note": "[Compound B, 6-(4-(4-(2,3-dichlorophenyl)piperazin-1-yl)butoxy)-2H-benzo[b][1,4]oxazin-3(4H)-one hydrochloride]", "values": [
      {"measurement": "Ki", "value": 2.5, "unit": "nM"}
    ]}
  ]
}
